Measurements: ChEMBL document CHEMBL4834461, “Intracellular fluorescence competition assay for inhibitor engagement of histone deacetylase” (Bioorg Med Chem Lett, 2021)

Legend:
Histone deacetylase 1 = Histone deacetylase 1 (Homo sapiens, UniProt Q13547); assay: Inhibition of HDAC1 (unknown origin)
[1] = biological target: T1, Protein deacetylase HDAC6 (Homo sapiens, UniProt Q9UBN7); assay: Inhibition of HDAC6 (unknown origin)
T1 sequence (Q9UBN7 whole entry): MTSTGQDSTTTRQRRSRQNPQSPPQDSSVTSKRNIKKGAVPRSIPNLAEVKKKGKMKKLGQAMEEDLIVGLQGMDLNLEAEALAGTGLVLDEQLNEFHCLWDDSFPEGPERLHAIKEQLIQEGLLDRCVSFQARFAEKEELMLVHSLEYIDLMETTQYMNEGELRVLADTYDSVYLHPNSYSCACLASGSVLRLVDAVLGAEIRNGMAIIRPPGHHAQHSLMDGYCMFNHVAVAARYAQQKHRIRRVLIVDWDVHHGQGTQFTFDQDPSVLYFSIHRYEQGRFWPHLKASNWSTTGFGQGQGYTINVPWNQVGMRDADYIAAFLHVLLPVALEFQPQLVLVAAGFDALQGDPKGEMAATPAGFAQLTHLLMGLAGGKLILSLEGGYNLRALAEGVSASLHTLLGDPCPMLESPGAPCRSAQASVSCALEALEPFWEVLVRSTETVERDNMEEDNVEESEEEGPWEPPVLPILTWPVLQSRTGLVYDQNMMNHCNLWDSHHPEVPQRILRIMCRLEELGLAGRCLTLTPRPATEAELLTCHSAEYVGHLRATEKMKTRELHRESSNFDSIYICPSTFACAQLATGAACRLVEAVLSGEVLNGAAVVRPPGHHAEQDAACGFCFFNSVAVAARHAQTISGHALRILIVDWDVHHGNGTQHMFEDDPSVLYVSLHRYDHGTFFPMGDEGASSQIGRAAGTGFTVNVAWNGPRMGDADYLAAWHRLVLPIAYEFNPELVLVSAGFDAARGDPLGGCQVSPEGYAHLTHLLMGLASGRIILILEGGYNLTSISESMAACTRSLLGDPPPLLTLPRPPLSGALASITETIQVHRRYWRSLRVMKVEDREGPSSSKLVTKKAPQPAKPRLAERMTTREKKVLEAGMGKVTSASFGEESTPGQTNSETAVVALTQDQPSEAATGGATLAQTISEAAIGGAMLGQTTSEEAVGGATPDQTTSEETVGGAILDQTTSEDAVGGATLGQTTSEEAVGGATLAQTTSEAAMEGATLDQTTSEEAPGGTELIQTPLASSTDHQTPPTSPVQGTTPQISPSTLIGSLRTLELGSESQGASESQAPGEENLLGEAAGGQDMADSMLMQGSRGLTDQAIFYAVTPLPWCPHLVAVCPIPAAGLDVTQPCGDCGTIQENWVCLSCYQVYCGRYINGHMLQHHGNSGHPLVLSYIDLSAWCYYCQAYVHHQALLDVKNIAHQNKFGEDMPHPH

Histone deacetylase 1, sequence (Q13547 whole entry): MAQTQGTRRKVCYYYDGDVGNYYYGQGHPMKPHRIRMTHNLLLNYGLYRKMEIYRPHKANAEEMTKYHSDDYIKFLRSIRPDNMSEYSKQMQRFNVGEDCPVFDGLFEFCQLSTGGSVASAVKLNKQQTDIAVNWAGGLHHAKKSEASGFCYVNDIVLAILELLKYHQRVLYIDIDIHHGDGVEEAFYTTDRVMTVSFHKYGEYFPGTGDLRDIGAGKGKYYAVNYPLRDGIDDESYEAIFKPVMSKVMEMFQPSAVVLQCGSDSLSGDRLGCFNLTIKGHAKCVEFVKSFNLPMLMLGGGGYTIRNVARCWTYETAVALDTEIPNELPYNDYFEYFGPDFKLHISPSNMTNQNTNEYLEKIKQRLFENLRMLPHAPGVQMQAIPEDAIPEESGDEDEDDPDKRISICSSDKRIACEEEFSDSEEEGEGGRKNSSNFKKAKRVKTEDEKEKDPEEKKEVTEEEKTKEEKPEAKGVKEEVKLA

Row | IC50 (Histone deacetylase 1) | IC50 [1] | Compound
1 | 280 nM | 12 nM | O=C(CCCCCN1C(=O)c2cccc3c(OCc4ccc(C(F)(F)F)cc4)ccc(c23)C1=O)NO
2 | 9500 nM | 1120 nM | CCCNc1ccc2c3c(cccc13)C(=O)N(CCCC(=O)NO)C2=O
